Measured values: patent US11426367B2, “Methods of treating substance abuse” (Perception Neuroscience, Inc., priority 2018, dated 2022)

Key:
[1] = system: cerebral metabolic rates of glucose; conditions: healthy volunteers, Non Patent Literature 13, cited from earlier work; for cerebral metabolic rates of glucose (CMRglu), PET: S(+)-ketamine i.v. 15 mg for 5 min then 0.014 to 0.02 mg/kg/min for 53 min, R(−)-ketamine equimolar doses
[2] = system: social defeat stress mice; assay: 1% sucrose preference test (SPT), social defeat stress model; type: in vivo; conditions: 10 mg/kg i.p.
Description: A social defeat stress model of depression was prepared by bringing C57/B6 male mice into contact with ICR male mice (large aggressive mice) for 10 consecutive days to apply a stress called a “social defeat stress” in accordance with the previous report (Non Patent Literature 19). […] Specifically, an increase in immobility time was found in each of a tail suspension test (TST) and a forced swimming test (FST).
The preparation of the animal model of depression and the administration of the agent were specifically performed as described below (FIG. 3A). Male C57/B6 mice (7-week-old, Japan SLC, Inc., Hamamatsu, Japan) and ICR mice (9-week-old, Japan SLC, Inc., Hamamatsu, Japan) were used. The mice were given free access to water and feed. A social defeat stress was applied by housing one C57/B6 mouse with one ICR mouse for 10 days.
The antidepressant effects of the agent were investigated by behavioral tests such as the TST, the PST, the LMT, and a 1% sucrose preference test (SPT) (FIG. 3A). The 1% sucrose preference test (SPT) was performed on 1 day and 6 days after the injection of ketamine. Each of the TST and the PST was performed on 2 days and 7 days after the injection of ketamine. The TST was performed as described below. First, the mice were taken out from cages, and then a small piece of an adhesive tape was bonded onto a portion approximately 2 cm away from the tip of the tail of the mice. A small hole was opened in the small piece, and the mice were each fixed upside down on a hook through the small hole. The immobility time of each mouse was recorded for 10 minutes. Mice were considered immobile only when they hung passively and completely motionless. The immobility time increases in a depressive state. The PST was performed as described below. First, the mice were placed individually in a cylinder (diameter: 23 cm; height: 31 cm) containing 15 cm of water, maintained at 22 to 24 deg C. The mice were tested in an automated forced-swimming apparatus using SCANET MV-40 ([…] Co., Ltd., Toyama, Japan). The immobility time was calculated as a value obtained by subtracting active time from total time, using the analysis software of the apparatus. Cumulative immobility time was recorded over 6 minutes during a test period. The LMT was performed as described below. First, the mice were placed in experimental cages (length×width×height: 560×560×330 mm). The locomotor activity of the mice was counted with SCANET MV-40, and the cumulative exercise of the mice was recorded for 60 minutes. The cages were cleaned between testing session. The immobility time increases in a depressive state. […] A spine density was quantitatively evaluated by observation with a KEYENCE microscope (BZ-9000, Osaka, Japan).

[3] = system: medial forebrain bundle self-stimulation in rats; assay: Intracranial self-stimulation (ICSS), frequency-rate procedure; conditions: for ICSS, anhedonia: doses 10, 30 mg/kg, Present study; for ICSS frequency-rate response curve: rats, 3, 10 or 30 mg/kg i.p. 2 hours prior to test session, vs saline vehicle
Control C57/B6 mice [4] = assay: Conditioned place preference test (dependence test) in control mice; conditions: control mice, 5, 10 or 20 mg/kg, injected on day 4, 6 and 8, test on day 11
Description: 15-minute habituation was performed for 3 days. Then, 30-minute conditioning was performed on day 4 to day 10, and a behavioral evaluation test was performed on day 11. Saline was injected on day 5, day 7, and day 9. […] In each of the groups, the injection was performed three times, i.e., on day 4, day 6, and day 8. Saline means a group injected with saline.
The administration of an agent was performed by the same methods as the methods described in Example 2.
The place preference test was performed using a conditioned place preference test apparatus (BrainScienceIdea Co., Ltd., Osaka, Japan). The analysis of the results of the place preference test was performed by one-way analysis of variance (one-way ANOVA), followed by a least significant difference test (LSD test). Data are presented as the mean plus minus standard error of the mean (n=9 or 10 mice/group). *p<0.05 and **p<0.01 indicate significant differences as compared to a group injected with saline.

Control C57/B6 mice [5] = assay: Prepulse inhibition test in control mice; conditions: control mice, 5, 10 or 20 mg/kg
Description: PP69, PP73, PP77, and PP81 mean that stimuli at 69, 73, 77, and 81 dB for more than 20 milliseconds were presented 100 milliseconds before a 110-dB pulse, respectively. Data analysis was performed by Wilks Lambda, which is multivariate analysis of variance (Example 3).
The prepulse inhibition test was performed using a startle response system (SR-LAB, SanDiego Instruments, San Diego, Calif., United States). The analysis of the results of prepulse inhibition was performed by multivariate analysis of variance (MANOVA), followed by a least significant difference test (LSD test). Data are presented as the mean plus minus standard error of the mean (n=10 to 12 mice/group). *p<0.05 and p<0.01 indicate significant differences as compared to a group injected with saline.

Control C57/B6 mice [6] = assay: Locomotion-enhancing effect in control mice; type: in vivo
Description: An effect of ketamine on the locomotion of mice was tested using SCANET MV-40 ([…] Co., Ltd., Toyama, Japan). Specifically, the locomotion was measured for a total of 180 minutes, i.e., 60 minutes before injection to 120 minutes after injection, and calculated as a locomotion per 10 minutes. The statistical analysis of the results of the locomotion was performed by repeated one-way analysis of variance (repeated one-way ANOV A), followed by a least significant difference test (LSD test).

[7] = 3 mg/kg i.p. 2 hours prior to test session, 10 rats
[8] = 10 mg/kg i.p. 2 hours prior to test session, 10 rats
[9] = 30 mg/kg i.p. 2 hours prior to test session, 10 rats
[10] = baseline session before dosing on the 3 mg/kg test day, 10 rats
[11] = baseline session before dosing on the 10 mg/kg test day, 10 rats
[12] = baseline session before dosing on the 30 mg/kg test day, 10 rats

SMILES | cerebral metabolic rates of glucose (CMRglu), PET [1] | sucrose consumption preference in the SPT ([2]; 1 day after injection) | sucrose consumption preference in the SPT ([2]; 6 days after injection) | M50, Test, mean log M50 frequency (SEM) [3, 7] | Threshold (T0), Test, mean log T0 frequency (SEM) [3, 7] | Threshold (T0), Test, mean log T0 frequency (SEM) [3, 8] | M50, Test, mean log M50 frequency (SEM) [3, 9] | Threshold (T0), Test, mean log T0 frequency (SEM) [3, 9] | M50, Baseline, mean log M50 frequency (SEM) [3, 10] | Threshold (T0), Baseline, mean log T0 frequency (SEM) [3, 10] | Threshold (T0), Baseline, mean log T0 frequency (SEM) [3, 11] | M50, Baseline, mean log M50 frequency (SEM) [3, 12] | Threshold (T0), Baseline, mean log T0 frequency (SEM) [3, 12] | ICSS, anhedonia [3] | ICSS frequency-rate response curve [3] | CPP score (conditioned place preference test) (Control C57/B6 mice [4]) | prepulse inhibition (Control C57/B6 mice [5]) | other results
CN[C@@]1(c2ccccc2Cl)CCCCC1=O.Cl [R(−)-ketamine] | tended to decrease CMRglu | sucrose consumption preference significantly increased | significantly restored the sucrose consumption preference | 1.98 (0.01) log/Hz | 1.88 (0.02) log/Hz | 1.93 (0.03) log/Hz | 1.99 (0.02) log/Hz | 1.90 (0.02) log/Hz | 2.00 (0.02) log/Hz | 1.91 (0.02) log/Hz | 1.91 (0.03) log/Hz | 1.98 (0.02) log/Hz | 1.89 (0.02) log/Hz | 10, 30 - no anhedonia | did not significantly alter behavior of rats | did not increase the CPP score | did not disrupt prepulse inhibition | psychotic symptoms ([1]; doses equimolar to psychotomimetic doses of S(+)-ketamine): did not produce psychotic symptoms; M50, Test, mean log M50 frequency (SEM) [3, 8]: 2.02 (0.02) log/Hz; M50, Baseline, mean log M50 frequency (SEM) [3, 11]: 2.00 (0.02) log/Hz; locomotion after injection (Control C57/B6 mice [6]; control mice, 5, 10 or 20 mg/kg): did not affect the locomotion
CN[C@]1(c2ccccc2Cl)CCCCC1=O [S(+)-ketamine] | increased cerebral metabolic rates of glucose | sucrose consumption preference significantly increased | significantly restored the sucrose consumption preference | 1.98 log/Hz | 1.88 log/Hz | 1.90 log/Hz | 2.07 log/Hz | 1.95 log/Hz | 1.97 (0.02) log/Hz | 1.86 (0.02) log/Hz | 1.87 (0.02) log/Hz | 1.98 (0.01) log/Hz | 1.87 (0.02) log/Hz | 10, 30 anhedonia | significant downward shift in the stimulation-frequency curve | increased the CPP score in a dose-dependent manner | disrupted prepulse inhibition in a dose-dependent manner | M50, Test, mean log M50 frequency ([3]; 15 mg/kg (so in the source) i.p., 10 rats): 2.00 log/Hz; M50, Baseline, mean log M50 frequency (SEM) ([3]; baseline session before dosing on the 15 mg/kg (so in the source) test day, 10 rats): 1.97 (0.01) log/Hz; time after injection at which locomotion returned to a normal value (Control C57/B6 mice [6]; control mice, 10 mg/kg or 20 mg/kg): 30 min; locomotion after injection (Control C57/B6 mice [6]; control mice, 10 mg/kg or 20 mg/kg, 10 minutes and 20 minutes after injection, vs saline): significant increase in locomotion
